Values of other authors, collected in US7192914B1, “Prevention of atherosclerosis and undesired blood clotting by reducing von Willebrand factor” (The Regents of the University of California, priority 1999, dated 2007).

Test system: human endothelial cells
Conditions: human endothelial cells treated with tunicamycin; Wagner et al. (1986) J. Cell Biol. 102: 1320-4

Substance: tunicamycin
- effect on secreted vWF: absence of secreted vWF
